Here are results for 15 compounds from US8871753B2, “Macrocyclic compounds and their use as kinase inhibitors” (Incyte Corporation, priority 2008, dated 2014).

Counter-ions that a name gives are not always drawn. Like-named read-outs stand apart in the source and are kept apart here.

What all share (type): biochemical
The target in assay [1] is T1, human JAK1 (a.a. 837-1142) (Homo sapiens, UniProt P23458).
T1 construct: human JAK1 (a.a. 837-1142); His tag (N); made in house; host or cells: insect cells (baculovirus)
In words: In vitro JAK kinase assay (HTRF, phosphorylation of a biotinylated peptide), JAK1. The conditions noted are these: read-out: JAK1 IC50. In short, it runs like this:
(§1)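 Kinase activity was measured as phosphorylation of a biotinylated peptide, with ATP at 90 μM for JAK1, 30 μM for JAK2 and 3 μM for JAK3. Reactions ran 1 hr at room temperature, were stopped with EDTA plus SA-APC and Eu-Py20, and were read by HTRF after 40 minutes of antibody binding.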

Assay [2] addresses TYK2 (Homo sapiens, UniProt P29597). The assay can be described thus: TYK2 kinase inhibition (Table A1).
The target of assay [3] is T2, Recombinant Human Anaplastic Lymphoma Kinase (Homo sapiens, UniProt Q9UM73).
T2 construct: purchased Invitrogen, Carlsbad, Calif
In words: ALK HTRF kinase assay. The method in brief: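 Biotinylated peptide substrate, recombinant human ALK; detection via europium-chelate antibody to phosphotyrosine paired with streptavidin-APC. Potency expressed as IC50 from four-parameter curve fitting.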

For assay [4], the target named is T3, human JAK3 (a.a. 781-1124) (Homo sapiens, UniProt P52333).
T3 construct: JAK3 (a.a. 781-1124); His tag (N); made in house; host or cells: insect cells (baculovirus)
The assay can be described thus: In vitro JAK kinase assay (HTRF, phosphorylation of a biotinylated peptide), JAK3. The method in brief:
as §1

The target in assay [5] is T4, human JAK2 (a.a. 828-1132) (Homo sapiens, UniProt O60674).
T4 construct: JAK2 (a.a. 828-1132); His tag (N); made in house; host or cells: insect cells (baculovirus)
The assay can be described thus: In vitro JAK kinase assay (HTRF, phosphorylation of a biotinylated peptide), JAK2. The method in brief: as §1

Where [6] appears, read: method AA1 (90 μM ATP) or AA2 (1000 μM ATP), not stated per value.
The mark [7] stands for this setting: compound at 500 nM or 1 mM, 90 μM ATP.
Where [8] appears, read: method AA1 (3 μM ATP) or AA2 (1000 μM ATP), not stated per value.
Setting [9] is: method AA1 (30 μM ATP) or AA2 (1000 μM ATP), not stated per value.
The mark [10] stands for this setting: Table B1, cells without percent sign.
[11] abbreviates: percentage inhibition of the example compound at a concentration of 500 nM or 1 mM (not specified which).
Where [12] appears, read: compound at a concentration of 500 nM or 1 mM (not specified), cells shown as percentage.

T1 sequence (P23458 849-1154): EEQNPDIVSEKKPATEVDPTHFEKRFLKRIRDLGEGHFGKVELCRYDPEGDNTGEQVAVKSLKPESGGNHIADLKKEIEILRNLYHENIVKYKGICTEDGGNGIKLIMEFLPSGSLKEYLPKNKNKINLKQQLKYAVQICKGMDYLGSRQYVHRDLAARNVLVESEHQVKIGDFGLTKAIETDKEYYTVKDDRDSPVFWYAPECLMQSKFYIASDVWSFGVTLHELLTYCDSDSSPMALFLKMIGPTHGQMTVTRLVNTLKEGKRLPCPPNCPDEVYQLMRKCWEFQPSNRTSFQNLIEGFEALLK
T3 sequence (P52333 781-1124): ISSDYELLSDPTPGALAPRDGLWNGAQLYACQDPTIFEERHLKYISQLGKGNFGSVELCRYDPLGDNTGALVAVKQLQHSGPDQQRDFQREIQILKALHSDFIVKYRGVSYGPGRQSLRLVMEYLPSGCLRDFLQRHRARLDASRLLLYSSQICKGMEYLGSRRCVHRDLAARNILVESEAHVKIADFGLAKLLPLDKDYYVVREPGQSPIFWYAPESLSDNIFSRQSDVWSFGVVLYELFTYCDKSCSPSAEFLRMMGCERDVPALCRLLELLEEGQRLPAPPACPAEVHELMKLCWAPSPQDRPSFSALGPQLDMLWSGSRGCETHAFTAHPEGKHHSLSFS
Chain of TYK2 (P29597 whole entry): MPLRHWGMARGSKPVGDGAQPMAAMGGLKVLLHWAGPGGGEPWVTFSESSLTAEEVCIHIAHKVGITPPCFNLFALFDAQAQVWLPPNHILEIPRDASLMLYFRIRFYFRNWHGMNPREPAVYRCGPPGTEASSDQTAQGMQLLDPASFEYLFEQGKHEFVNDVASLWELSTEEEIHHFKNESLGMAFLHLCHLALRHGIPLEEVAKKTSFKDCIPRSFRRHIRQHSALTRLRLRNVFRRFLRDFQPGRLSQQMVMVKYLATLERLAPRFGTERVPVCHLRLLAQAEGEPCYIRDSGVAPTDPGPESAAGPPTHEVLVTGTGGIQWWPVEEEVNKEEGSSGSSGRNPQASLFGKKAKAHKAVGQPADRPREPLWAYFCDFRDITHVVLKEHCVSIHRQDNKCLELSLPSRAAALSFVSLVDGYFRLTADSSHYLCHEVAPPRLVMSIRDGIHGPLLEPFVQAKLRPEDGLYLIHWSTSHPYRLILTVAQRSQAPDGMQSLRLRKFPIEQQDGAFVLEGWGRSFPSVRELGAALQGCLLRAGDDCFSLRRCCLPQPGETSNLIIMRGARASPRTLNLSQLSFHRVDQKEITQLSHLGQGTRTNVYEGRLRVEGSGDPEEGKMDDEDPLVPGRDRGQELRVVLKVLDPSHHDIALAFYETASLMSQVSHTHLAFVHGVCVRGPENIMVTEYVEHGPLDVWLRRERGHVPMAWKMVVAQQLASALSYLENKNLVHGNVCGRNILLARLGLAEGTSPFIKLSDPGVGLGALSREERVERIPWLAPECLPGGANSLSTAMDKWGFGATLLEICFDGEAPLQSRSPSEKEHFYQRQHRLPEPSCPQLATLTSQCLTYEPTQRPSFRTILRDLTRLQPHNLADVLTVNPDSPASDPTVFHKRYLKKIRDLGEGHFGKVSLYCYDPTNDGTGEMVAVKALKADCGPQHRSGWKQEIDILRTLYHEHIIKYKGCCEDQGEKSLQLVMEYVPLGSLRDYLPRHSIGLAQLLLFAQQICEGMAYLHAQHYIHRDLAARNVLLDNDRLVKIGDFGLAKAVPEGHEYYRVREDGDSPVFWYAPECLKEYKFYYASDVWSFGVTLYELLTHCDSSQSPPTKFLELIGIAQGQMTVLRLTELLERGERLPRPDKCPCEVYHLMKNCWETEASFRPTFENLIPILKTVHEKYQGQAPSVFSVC
T4 sequence (O60674 828-1132): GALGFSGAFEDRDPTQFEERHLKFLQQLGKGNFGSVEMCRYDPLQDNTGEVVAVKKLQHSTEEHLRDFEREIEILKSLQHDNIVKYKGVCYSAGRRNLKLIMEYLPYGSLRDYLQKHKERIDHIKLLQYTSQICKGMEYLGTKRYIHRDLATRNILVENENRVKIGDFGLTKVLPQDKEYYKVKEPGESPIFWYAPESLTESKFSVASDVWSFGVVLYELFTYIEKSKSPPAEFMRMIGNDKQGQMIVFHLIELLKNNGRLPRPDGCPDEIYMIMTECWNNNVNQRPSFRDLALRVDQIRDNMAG
T2 sequence (Q9UM73 19-1620): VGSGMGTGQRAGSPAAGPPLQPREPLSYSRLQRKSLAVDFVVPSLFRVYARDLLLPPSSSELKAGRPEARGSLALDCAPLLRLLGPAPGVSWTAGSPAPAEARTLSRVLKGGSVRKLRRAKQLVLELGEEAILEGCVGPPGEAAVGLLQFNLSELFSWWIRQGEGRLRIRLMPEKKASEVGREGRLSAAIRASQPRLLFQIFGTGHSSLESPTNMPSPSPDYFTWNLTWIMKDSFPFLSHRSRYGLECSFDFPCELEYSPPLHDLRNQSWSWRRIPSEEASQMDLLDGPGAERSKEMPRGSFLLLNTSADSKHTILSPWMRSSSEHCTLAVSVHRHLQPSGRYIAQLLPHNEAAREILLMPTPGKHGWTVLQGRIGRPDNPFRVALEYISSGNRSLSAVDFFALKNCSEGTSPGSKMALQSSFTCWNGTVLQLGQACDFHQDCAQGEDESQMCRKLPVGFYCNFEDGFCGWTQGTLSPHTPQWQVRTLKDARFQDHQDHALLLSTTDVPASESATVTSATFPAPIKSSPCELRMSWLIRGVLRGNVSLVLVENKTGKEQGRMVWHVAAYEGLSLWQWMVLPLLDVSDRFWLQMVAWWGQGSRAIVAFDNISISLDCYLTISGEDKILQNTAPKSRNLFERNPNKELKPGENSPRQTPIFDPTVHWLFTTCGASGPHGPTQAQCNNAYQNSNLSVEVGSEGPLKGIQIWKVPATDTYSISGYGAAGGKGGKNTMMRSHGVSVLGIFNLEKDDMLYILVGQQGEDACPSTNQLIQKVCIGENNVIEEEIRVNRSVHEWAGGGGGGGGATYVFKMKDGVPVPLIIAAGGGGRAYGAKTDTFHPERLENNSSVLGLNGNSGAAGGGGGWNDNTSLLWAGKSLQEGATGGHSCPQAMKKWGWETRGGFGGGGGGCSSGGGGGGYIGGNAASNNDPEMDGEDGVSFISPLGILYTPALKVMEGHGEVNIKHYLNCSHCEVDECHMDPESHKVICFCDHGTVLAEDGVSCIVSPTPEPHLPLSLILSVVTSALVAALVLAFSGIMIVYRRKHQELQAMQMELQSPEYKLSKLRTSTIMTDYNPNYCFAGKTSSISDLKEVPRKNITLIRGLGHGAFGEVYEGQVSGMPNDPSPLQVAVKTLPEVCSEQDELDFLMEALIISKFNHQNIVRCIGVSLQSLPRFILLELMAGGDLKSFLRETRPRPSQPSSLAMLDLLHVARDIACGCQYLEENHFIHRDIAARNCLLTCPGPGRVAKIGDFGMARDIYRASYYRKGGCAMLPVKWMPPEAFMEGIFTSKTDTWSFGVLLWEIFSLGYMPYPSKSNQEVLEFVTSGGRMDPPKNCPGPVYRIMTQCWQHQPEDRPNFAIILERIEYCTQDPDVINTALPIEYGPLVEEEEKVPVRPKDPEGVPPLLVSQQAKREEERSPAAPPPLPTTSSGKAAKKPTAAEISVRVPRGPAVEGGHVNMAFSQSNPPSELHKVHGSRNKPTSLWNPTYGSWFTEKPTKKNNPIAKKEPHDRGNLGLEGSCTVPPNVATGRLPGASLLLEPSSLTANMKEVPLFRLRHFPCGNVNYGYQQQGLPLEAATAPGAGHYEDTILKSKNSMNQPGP

`O=C(CC1CCN(C(=O)c2ccccc2)CC1)Nc1ccc2cc1CCc1cncc(c1)Nc1ncc(Cl)c(n1)N2` [Example A192, 2-(1-Benzoylpiperidin-4-yl)-N-[6-chloro-2,4,8,18,22-pentaazatetracyclo[14.3.1.1(3,7).1(9,13)]docosa-1(20),3(22),4,6,9(21),10,12,16,18-nonaen-12-yl]acetamide bis(trifluoroacetate)]: the concentration for half-maximal inhibition (IC50) was 21 nM in assay [1] (setting [6]), more than 200 nM in assay [2], more than 200 nM in assay [4] (setting [8]) and more than 200 nM in assay [5] (setting [9]). The “ALK % of inhibition at a concentration of 500 nM or 1 mM” value (“ALK % of inhibition” below) in assay [3] (setting [7]) is 31%.

On to `Cc1ccc(S(=O)(=O)Nc2ccc3cc2CCc2cccc(c2)Nc2ncc(Cl)c(n2)N3)cc1` [Example B150, N-[6-Chloro-2,4,8,22-tetraazatetracyclo[14.3.1.1(3,7).1(9,13)]docosa-1(20), 3(22),4,6,9(21),10,12,16,18-nonaen-12-yl]-4-methylbenzenesulfonamide trifluoroacetate], for which the IC50 in assay [1] (Table B1) turned out to be 0.41 nM; in assay [2] (Table B1), 0.86 nM; in assay [3] (setting [10]) it was 180 nM; in assay [4] (Table B1), 6.3 nM; in assay [5] (Table B1), 0.15 nM.

In the case of `Clc1cnc2nc1Nc1cccc(c1)SCCNc1cccc(c1)N2` [Example D80, 6-Chloro-14-thia-2,4,8,17,24-pentaazatetracyclo[16.3.1.1(3,7).1(9,13)]tetracosa-1(22),3(24),4,6,9(23),10,12,18,20-nonaene bis(trifluoroacetate)], the IC50 in assay [1] (Table D1) came to 7.4 nM; in assay [2] (Table D1) it was 8.8 nM; in assay [3] (Table D1, 90 μM ATP) it was 570 nM; in assay [4] (Table D1), 23 nM; in assay [5] (Table D1) it was 4.9 nM.

In the case of `O=S(=O)(Nc1ccc2cc1CCc1cccc(c1)Nc1ncc(Cl)c(n1)N2)c1ccc(Cl)cc1` [Example B139, 4-Chloro-N-[6-chloro-2,4,8,22-tetraazatetracyclo[14.3.1.1(3,7).1(9,13)]docosa-1(20),3(22),4,6,9(21),10,12,16,18-nonaen-12-yl]benzenesulfonamide trifluoroacetate], the IC50 in assay [1] (Table B1) came out at 0.5 nM; in assay [2] (Table B1), 0.84 nM; in assay [3] (setting [10]), 290 nM; in assay [4] (Table B1) it was 5.1 nM; in assay [5] (Table B1) it was 0.1 nM.

For the compound `CCS(=O)(=O)NCCNC(=O)Nc1ccc2cc1CCc1cccc(c1)Nc1ncc(Cl)c(n1)N2` [Example B325, N-{2-[({[6-Chloro-2,4,8,22-tetraazatetracyclo[14.3.1.1(3,7).1(9,13)]docosa-1(20),3(22),4,6,9(21),10,12,16,18-nonaen-12-yl]amino}carbonyl)amino]ethyl}ethanesulfonamide trifluoroacetate], the IC50 in assay [1] (Table B1) was determined as 2 nM; in assay [2] (Table B1) it was 5.5 nM; in assay [4] (Table B1), 6.4 nM; in assay [5] (Table B1), 1.6 nM. In addition, in assay [3] (setting [11]), the “ALK % of inhibition” value was found to be 19%.

Take `CCc1ccc(NC(=O)Nc2ccc3cc2CCc2cccc(c2)Nc2ncc(Cl)c(n2)N3)cc1` [Example B98, N-[6-Chloro-2,4,8,22-tetraazatetracyclo[14.3.1.1(3,7).1(9,13)]docosa-1(20), 3(22),4,6,9(21),10,12,16,18-nonaen-12-yl]-N′-(4-ethylphenyl)urea trifluoroacetate]: the IC50 in assay [1] (Table B1) worked out at 13 nM; in assay [2] (Table B1), 38 nM; in assay [4] (Table B1), 91 nM; in assay [5] (Table B1), 26 nM. In assay [3] (setting [12]), the “ALK % of inhibition” value is on record as 41%.

For the compound `O=C(CC1CCN(c2ncco2)CC1)Nc1ccc2cc1CCc1cncc(c1)Nc1ncc(Cl)c(n1)N2` [Example A246, N-[6-Chloro-2,4,8,18,22-pentaazatetracyclo[14.3.1.1(3,7).1(9,13)]docosa-1(20),3(22),4,6,9(21),10,12,16,18-nonaen-12-yl]-2-[1-(1,3-oxazol-2-yl)piperidin-4-yl]acetamide tris(trifluoroacetate)], the IC50 is 15 nM in assay [1] (setting [6]), more than 200 nM in assay [2], more than 200 nM in assay [4] (setting [8]) and 120 nM in assay [5] (setting [9]). In addition, in assay [3] (setting [7]), the “ALK % of inhibition” value amounted to 39%.

Turning to `O=C(CC1CCN(C(=O)c2cnccn2)CC1)Nc1ccc2cc1CCc1cncc(c1)Nc1ncc(Cl)c(n1)N2` [Example A102, N-[6-Chloro-2,4,8,18,22-pentaazatetracyclo[14.3.1.1(3,7).1(9,13)]docosa-1(20),3(22),4,6,9(21),10,12,16,18-nonaen-12-yl]-2-[1-(pyrazin-2-ylcarbonyl)piperidin-4-yl]acetamide tris(trifluoroacetate)], the IC50 is 10 nM in assay [1] (setting [6]), 19 nM in assay [2], 170 nM in assay [4] (setting [8]) and 20 nM in assay [5] (setting [9]). Also, the “ALK % of inhibition” value in assay [3] (setting [7]) came out at 21%.

As to `Cc1cc(N2CCC(CC(=O)Nc3ccc4cc3CCc3cccc(c3)Nc3ncc(Cl)c(n3)N4)CC2)no1` [Example A248, N-[6-Chloro-2,4,8,22-tetraazatetracyclo[14.3.1.1(3,7).1(9,13)]docosa-1(20),3(22),4,6,9(21),10,12,16,18-nonaen-12-yl]-2-[1-(5-methylisoxazol-3-yl)piperidin-4-yl]acetamide trifluoroacetate], the IC50 in assay [1] (setting [6]) is 8.7 nM; in assay [2], 82 nM; in assay [4] (setting [8]), more than 200 nM; in assay [5] (setting [9]) it was 30 nM. For the same compound, the “ALK % of inhibition” value in assay [3] (setting [7]) is given as 50%.

As to `CC(C)(C)NC(=O)N1CCC(CC(=O)Nc2ccc3cc2CCc2cncc(c2)Nc2ncc(Cl)c(n2)N3)CC1` [Example A113, N-(tert-Butyl)-4-(2-{[6-chloro-2,4,8,18,22-pentaazatetracyclo[14.3.1.1(3,7).1(9,13)]docosa-1(20),3(22),4,6,9(21),10,12,16,18-nonaen-12-yl]amino}-2-oxoethyl)piperidine-1-carboxamide bis(trifluoroacetate)], the IC50 in assay [1] (setting [6]) came out at 17 nM; in assay [2], 61 nM; in assay [4] (setting [8]), 238 nM; in assay [5] (setting [9]), 54 nM. Besides, the “ALK % of inhibition” value in assay [3] (setting [7]) turned out to be 14%.

As for `Cc1n[nH]c(C)c1-c1cc2cc(c1)Nc1ncc(Cl)c(n1)Nc1cccc(c1)OCC2` [Example D30, 6-Chloro-19-(3,5-dimethyl-1H-pyrazol-4-yl)-14-oxa-2,4,8,23-tetraazatetracyclo[15.3.1.1(3,7).1(9,13)]tricosa-1(21),3(23),4,6,9(22),10,12,17,19-nonaene bis(trifluoroacetate)], the IC50 was 4.1 nM in assay [1] (Table D1); 15 nM in assay [2] (Table D1); 157 nM in assay [3] (Table D1, 90 μM ATP); 49 nM in assay [4] (Table D1); 0.6 nM in assay [5] (Table D1).

On to `O=C(CC1CCN(c2ccccn2)CC1)Nc1ccc2cc1CCc1cncc(c1)Nc1ncc(Cl)c(n1)N2` [Example A170, N-[6-Chloro-2,4,8,18,22-pentaazatetracyclo[14.3.1.1(3,7).1(9,13)]docosa-1(20),3(22),4,6,9(21),10,12,16,18-nonaen-12-yl]-2-(1-pyridin-2-ylpiperidin-4-yl)acetamide tris(trifluoroacetate)], for which the IC50 in assay [1] (setting [6]) was 7.8 nM; in assay [2] it was 250 nM; in assay [4] (setting [8]), more than 1000 nM; in assay [5] (setting [9]) it was 165 nM. Also, the “ALK % of inhibition” value in assay [3] (setting [7]) is 37%.

As for `COc1cccc(NC(=O)Nc2ccc3cc2CCc2cccc(c2)Nc2ncc(Cl)c(n2)N3)c1` [Example B100, N-[6-Chloro-2,4,8,22-tetraazatetracyclo[14.3.1.1(3,7).1(9,13)]docosa-1(20), 3(22),4,6,9(21),10,12,16,18-nonaen-12-yl]-N′-(3-methoxyphenyl)urea trifluoroacetate], the IC50 in assay [1] (Table B1) was found to be 0.92 nM; in assay [2] (Table B1), 8.7 nM; in assay [4] (Table B1) it was 40 nM; in assay [5] (Table B1), 4.7 nM. The “ALK % of inhibition” value in assay [3] (setting [12]) was 44%.

As to `O=S1(=O)Cc2cccc(c2)Nc2nc(ncc2Cl)Nc2cccc1c2` [Example D4, 6-Chloro-15-thia-2,4,8,22-tetraazatetracyclo[14.3.1.1(3,7).1(9,13)]docosa-1(20),3(22),4,6,9(21),10,12,16,18-nonaene 15,15-dioxide trifluoroacetate], the IC50 came to 91 nM in assay [1] (Table D1); 50 nM in assay [2] (Table D1); 774 nM in assay [3] (Table D1, 90 μM ATP); 25 nM in assay [4] (Table D1); 16 nM in assay [5] (Table D1).

`CC(=O)N1CCN(C(=O)Nc2ccc3cc2CCc2cncc(c2)Nc2ncc(Cl)c(n2)N3)CC1` [Example B317, 4-Acetyl-N-[6-chloro-2,4,8,18,22-pentaazatetracyclo[14.3.1.1(3,7).1(9,13)]docosa-1(20),3(22),4,6,9(21),10,12,16,18-nonaen-12-yl]piperazine-1-carboxamide bis(trifluoroacetate)]: the IC50 is 57 nM in assay [1] (Table B1), 356 nM in assay [2] (Table B1), more than 400 nM in assay [4] (Table B1) and more than 400 nM in assay [5] (Table B1). In addition, the “ALK % of inhibition” value in assay [3] (setting [11]) was 50%.
